Measured values: US9475855B2, “Human Notch3 based fusion proteins as decoy inhibitors of Notch3 signaling” (THE TRUSTEES OF COLUMBIA UNIVERSITY IN THE CITY OF NEW YORK, priority 2008, dated 2016)
Blank lines part the entries; values can stand above or below the molecule they belong to.

Experiments:
Assay type in all cases: cell-based, human
CBF1 promoter activity = assay: VEGF-induced Notch signaling, CBF1 promoter (CSL-luciferase) reporter activity in HUVEC; settings: Ad-VEGF-transduced HUVEC
Experimental: To determine VEGF-induced Notch signaling, HUVEC which were infected with adenovirus were used. HUVEC plated 1-day prior in 6 well plates at 8.0×10^5 were infected with either Ad-LacZ as control or Ad-VEGF at indicated m.o.i. in the presence or absence of Ad-N1ECD/Fc. Two days after infection, infected HUVEC were re-seeded into 24-well plate at 1.5×10^5 cell in triplicate and cultured for 24 hours, and then transfected with 12.5 ng pRL-SV40 (Promega) and 137.5 ng pGA981-6 using Effectene transfection reagent (Qiagen). Cells were harvested either 1 or 2 days post-transfection and luciferase activity was determined by using the Dual-Luciferase® Reporter Assay System (Promega).
One can measure Notch signaling function by measuring transcriptional activity of CBF1 promoter, which is activated by binding of Notch-IC to CBF1. We measured CBF1 promoter activity in HUVEC which was infected with adenovirus encoding VEGF-165 at different MOI (FIG. 6). Induction of CBF1 promoter was clearly detected in Ad-VEGF-infected HUVEC, compared to Ad-LacZ-infected cells in the MOI dependent manner. […] Thus VEGF induced Notch signaling activity.

Ad-N1IC-transduced HUVEC = assay: Notch-induced HUVEC budding on collagen gel
Experimental: HUVEC were transduced with either Ad-LacZ or Ad-N1IC at 40 MOI. FIGS. 23A-23C show the effect of inhibitors for receptor tyrosine kinases on Notch-induced HUVEC budding. FIG. 23A is a photograph of budding of Ad-N1IC-transduced HUVEC treated with PD166866, ZD1893 at 1 μm and SU5416 at 0.5 μm. […] FIGS. 23D-E show induction of Flt-1 expression in Ad-N1IC-transduced HUVEC. […] FIGS. 23F-G show promotion of Notch-induced HUVEC budding with P1GF stimulation. Ad-N1IC-transduced HUVEC were cultured on collagen gel with SFM, instead of complete medium, in the absence or presence of 50 ng/ml P1GF. […] FIGS. 23H-I show the effect of Flt-1 siRNA transfection on Flt1 expression. Ad-N1IC-transduced HUVEC were transfected with 200 pmol of either control (CT) or Flt-1 siRNA. […] Ad-N1IC-transduced HUVEC were transfected with either 100 or 200 pmol of siRNA and cultured on collagen gel for 2 days.
These Figures show inhibition of budding of Ad-N1IC-transduced HUVEC with treatment of matrix metallo-proteinase inhibitor GM6001. Either Ad-LacZ or Ad-N1IC-HUVEC at a MOI of 40 pfu/cell were cultured on collagen gel for 5 days in the absence or presence of GM6001 at 50 μm.
To test whether Notch signaling is down-stream of VEGF, we evaluated three distinct inhibitors for receptor tyrosine kinases, including VEGFR on N1IC-induced HUVEC budding, because three growth factors existed in complete medium (FIG. 23A-C). […] Thus, we examined whether activation of Notch signaling affected Flt1/VEGFR1 expression in HUVEC, because SU5416 inhibits both Flt1 and Flk1 kinase activity (15). […] P1GF increased the number of Ad-N1IC-HUVEC buds by 150%, compared to the absence of P1GF (FIG. 23F). Moreover, P1GF increased HUVEC buds containing multiple filopodia by 250% (FIG. 23G). […] Transfection with Flt1 siRNA inhibited budding of both Ad-N1IC- and Ad-VEGF-HUVEC to a similar extent (data not shown).

HUVEC = HUVEC proliferation (CCK-8 kit); settings: SFM with 1% FBS, 4 days (FIG. 26B)
Experimental: These Figures show proliferation of Ad-VEGF165-transduced HUVEC. HUVEC were transduced with Ad-VEGF165 at the indicated dosages. Ad-LacZ was also co-infected to make the same total amount of adenovirus at a MOI of 40 pfu/cell. HUVEC were suspended in SFM supplemented with 1% FBS and then plated at 1×10^4 cells/well in 24-well multi-wll plates with 0.4 ml of medium. After 4 days, cell numbers were determined using the CCK-8 kit and the results are indicated as the ratio of cell numbers determined to the number of control cells, which were transduced with Ad-GFP at a MOI of 40 pfu/cell. […] Ad-VEGF-transduced HUVEC were treated with SU5416 at the indicated dosages.
These Figures show the effect of alteration of Notch signaling on cell proliferation. The cells were transduced with the indicated adenoviruses. Ad-GFP was also co-infected to make the same total amount of adenovirus at a MOI of 60 pfu/cell. After 4 days, cell numbers were determined using the CCK-8 kit and results are indicated as the ratio of cell numbers determined to the number of control cells, which were transduced with AD-GFP at MOI of 60 pfu/cell. […] Transduced HUVEC were suspended in complete medium and then plated at 1×10^4 cells/well in 24-well multiwell plates with 0.4 ml of indicated medium (□: Ad-N1IC; ▪: Ad-N1ECDFc). […]

Notch3 = assay: quantitative RT-PCR of Prox1-induced Notch3 expression in HUVEC; settings: Ad-Prox1 infected HUVEC, 24 hours
Experimental: (A) It was examined if extopic expression of Prox1 would alter the expression of Notch proteins or ligands. Twenty-four hours post adenoviral infection with either Ad-Prox1 or Ad-LacZ, HUVEC total RNA was isolated and quantitative RT-PCR for Notch1-4, Dll4 and Jagged1 performed. […] (B) Compound E (cE), Presenlin inhibitor that inhibits Notch signaling, was incubated for 24 hours on either Ad-LacZ or Ad-Prox1 infected HUVEC. Total RNA was isolated and quantitative PCR performed to determine Notch3 expression.
It was examined if ectopic expression of Prox1 would alter the expression of Notch proteins or ligands. […] Total RNA was isolated and quantitative RT-PCR performed to determine Notch3 expression. Prox1 induced Notch3 expression and this induction was inhibited by the addition of compound E.

ephrinB2 = assay: quantitative RT-PCR of Prox1-induced Notch-target gene ephrinB2 in HUVEC; settings: Ad-Prox1 infected HUVEC, 24 hours
Experimental: (§1) HUVEC were infected with adenoviruses encoding LacZ, Prox1, N1Ic or N4/int-3. Compound E(cE), Presenlin inhibitor that inhibits Notch signaling, was incubated for 24 hours on either Ad-LacZ or Ad-Prox1 infected HUVEC and total RNA isolated. Quantitative RT-PCR was performed for the endothelial Notch-target genes, VEGFR-3, EphrinB2, and Hey2. The Prox-1 mediated induction of the Notch target genes, ephrinB2, VEGFR-3 and Hey2 was inhibited by the addition of the Notch signaling inhibitor Compound E. Thus, Prox1 regulates the expression of ephrinB2, VEGFR-3 and Hey2 via Notch.
as §1, with “E, as shown in FIG. 48.” for “E.”

VEGFR-3 = assay: quantitative RT-PCR of Prox1-induced Notch-target gene VEGFR-3 in HUVEC; settings: Ad-Prox1 infected HUVEC, 24 hours
Experimental: as §1
as §1, with “E, as shown in FIG. 48.” for “E.”

Hey2 = assay: quantitative RT-PCR of Prox1-induced Notch-target gene Hey2 in HUVEC; settings: Ad-Prox1 infected HUVEC, 24 hours
Experimental: as §1
as §1, with “E, as shown in FIG. 48.” for “E.”

[1] = receptor tyrosine kinase inhibitors, 1 μM, complete medium

VEGF-induced CBF1 promoter / CSL-luciferase reporter activity (CBF1 promoter activity): decreased
Molecule: Cc1cc(C)c(/C=C2\C(=O)Nc3ccccc32)[nH]1 [SU5416, reference compound]
budding of Ad-N1IC-HUVEC versus viability (Ad-N1IC-transduced HUVEC; lower concentrations, dose-dependency (FIG. 23C)): selectively inhibited
budding of Ad-N1IC-HUVEC (Ad-N1IC-transduced HUVEC; [1]): clearly inhibited
proliferation of Ad-VEGF-transduced HUVEC (HUVEC): inhibitory effect

Molecule: C[C@H](NC(=O)Cc1cc(F)cc(F)c1)C(=O)N[C@H]1N=C(c2ccccc2)c2ccccc2N(C)C1=O [Compound E]
Prox1 induction of Notch3 expression (Notch3): inhibited
Prox-1 mediated induction of ephrinB2 (ephrinB2): inhibited
Prox-1 mediated induction of VEGFR-3 (VEGFR-3): inhibited
Prox-1 mediated induction of Hey2 (Hey2): inhibited

Molecule: COc1cc(OC)cc(-c2cc3cnc(N)nc3nc2NC(=O)NC(C)(C)C)c1 [P13166866]
budding of Ad-N1IC-HUVEC (Ad-N1IC-transduced HUVEC; [1]): Neither P13166866 or ZD1893 affected budding

Molecule: CNC(=O)[C@H](Cc1c[nH]c2ccccc12)NC(=O)[C@@H](CC(=O)NO)CC(C)C [GM6001]
budding of Ad-N1IC-HUVEC (Ad-N1IC-transduced HUVEC; GM6001 at 50 μm, collagen gel, 5 days): clearly decreased
budding of Ad-N1IC-HUVEC (Ad-N1IC-transduced HUVEC; fibrin gel (data not shown)): clearly decreased

B1: P1GF: placental growth factor, a selective ligand for Flt1 (protein, UniProt P49763 19-221, looked up)
Placenta growth factor: LPAVPPQQWALSAGNGSSEVEVVPFQEVWGRSYCRALERLVDVVSEYPSEVEHMFSPSCVSLLRCTGCCGDENLHCVPVETANVTMQLLKIRSGDRPSYVELTFSQHVRCECRHSPGRQSPDMPGDFRADAPSFLPPRRSLPMLFRMEWGCALTGSQSAVWPSSPVPEEIPRMHPGRNGKKQQRKPLREKMKPERCGDAVPRR
increase of HUVEC buds containing multiple filopodia (Ad-N1IC-transduced HUVEC; 50 ng/ml P1GF, SFM): 250%
increase of the number of Ad-N1IC-HUVEC buds (Ad-N1IC-transduced HUVEC; 50 ng/ml P1GF, SFM, compared to the absence of P1GF): 150%
